Here are results for five molecules from patent publication US12172959B2, “Mono- or di-substituted indole derivatives as dengue viral replication inhibitors” (priority 2015, dated 2024).

Holding throughout (format): cell-based
In assay [1] the test system is DENV-1 strain TC974#666. Kind of assay: Tetravalent RT-qPCR assay Protocol A, serotype 1. The settings on record: Dengue virus, DENV1, 72 h, RT-qPCR serotype 1 TC974#666, Vero cells, day 3. The procedure:
(§1) The antiviral activity of the compounds of the invention was tested against DENV-1 strain TC974#666 (NCPV; Table 6), DENV-2 strain 16681 (Table 7), DENV-3 strain H87 (NCPV; Table 8) and DENV-4 strains H241 (NCPV; Table 9A) and SG/06K2270DK1/2005 (Eden; Table 9B) in a RT-qPCR assay. Therefore, Vero cells were infected with either DENV-1, or -2, or -3, or -4 in the presence or absence of test compounds. At day 3 post-infection, the cells were lysed and cell lysates were used to prepare cDNA of both a viral target (the 3′UTR of DENV; Table 2) and a cellular reference gene (β-actin, Table 2). Subsequently, a duplex real time PCR was performed on a Lightcycler480 instrument. The generated Cp value is inversely proportional to the amount of RNA expression of these targets. Inhibition of DENV replication by test compound results in a shift of Cp's for the 3′UTR gene. On the other hand, if a test compound is toxic to the cells, a similar effect on β-actin expression will be observed. The comparative ΔΔCp method is used to calculate EC50, which is based on the relative gene expression of the target gene (3′UTR) normalized with the cellular housekeeping gene (β-actin).
(§2) The culture medium consisted of minimal essential medium supplemented with 2% of heat-inactivated fetal calf serum, 0.04% gentamycin (50 mg/mL) and 2 mM of L-glutamine. Vero cells, obtained from ECACC, were suspended in culture medium and 75 μL/well was added in 96-well plates (10000 cells/well), which already contain the antiviral compounds. […] In addition, each plate contains wells which are assigned as virus controls (containing cells and virus in the absence of compound) and cell controls (containing cells in the absence of virus and compound). Once the cells were added in the plates, the plates were incubated in a fully humidified incubator (37° C., 5% CO2) until the next day. Dengue viruses serotype-1, 2, 3 and 4 were diluted in order to obtain a Cp of ˜22-24 in the assay. Therefore, 25 μL of virus suspension was added to all the wells containing test compound and to the wells assigned as virus control. In parallel, 25 μL of culture medium was added to the cell controls. Next, the plates were incubated for 3 days in a fully humidified incubator (37° C., 5% CO2). After 3 days, the supernatant was removed from the wells and the cells were washed twice with ice-cold PBS (˜100 μL). The cell pellets within the 96-well plates were stored at −80° C. for at least 1 day. Next, RNA was extracted using the Cells-to-CT™ lysis kit, according to the manufacturer's guideline (Life Technologies). The cell lysates can be stored at −80° C. or immediately used in the reverse transcription step.
(§3) In preparation of the reverse transcription step, mix A (table 3A) was prepared and 7.57 μL/well was dispensed in a 96-well plate. After addition of 5 μL of the cell lysates, a five minute denaturation step at 75° C. was performed (table 3B). Afterwards, 7.43 μL of mix B was added (table 3C) and the reverse transcription step was initiated (table 3D) to generate cDNA.
(§4) Finally, a RT-qPCR mix was prepared, mix C (table 4A), and 22.02 μL/well was dispensed in 96-well LightCycler qPCR plates to which 3 μL of cDNA was added and the qPCR was performed according to the conditions in table 4B on a LightCycler 480.
(§5) Using the LightCycler software and an in-house LIMS system, dose response curves for each compound were calculated and the half maximal effective concentration (EC50) and the half maximal cytotoxic concentration (CC50) were determined.
On the technique in general: In qPCR the cycle at which signal appears reflects the starting amount.

The subject of assay [2] is DENV-3 strain H87. Kind of assay: Tetravalent RT-qPCR assay Protocol A, serotype 3. The settings on record: Dengue virus, DENV3, 72 h, RT-qPCR serotype 3 H87, Vero cells, day 3. How it is done:
as §1, §2, §3, §4, §5

The subject of assay [3] is DENV-4 strain H241. Kind of assay: Tetravalent RT-qPCR assay Protocol A, serotype 4 H241. The settings on record: Dengue virus, DENV4, 72 h; Protocol A, RT-qPCR serotype 4 H241, Vero cells, day 3; read-out: EC50. The procedure: as §1, §2, §3, §4, §5
In assay [4] the test system is DENV-1 strain Djibouti strain (D1/H/IMTSSA/98/606). Kind of assay: Tetravalent RT-qPCR assay Protocol B, serotype 1. The settings on record: Dengue virus, DENV1, 168 h, RT-qPCR serotype 1 Djibouti, 7 days. The procedure: The antiviral activity of the compounds of the invention was tested against DENV-1 strain Djibouti strain (D1/H/IMTSSA/98/606; Table 6), DENV-2 strain NGC (Table 7), DENV-3 strain H87 (Table 8) and DENV-4 strain SG/06K2270DK1/2005 (Table 9B) in a RT-qPCR assay. Vero-B or Vero-M cells (5×10^4) were seeded in 96-well plates. One day later, culture medium was replaced with 100 μL assay medium containing a 2×, 3× or 5× serial dilution of the compound (concentration range: 50 μg/mL-0.00038 μg/mL, 50 μg/mL-0.0076 μg/mL, and 50 μg/mL-0.00013 μg/mL, respectively) and 100 μL of dengue virus inoculum (DENV). Following a 2 hour incubation period, the cell monolayer was washed 3 times with assay medium to remove residual, non-adsorbed virus and cultures were further incubated for either 4 days (DENV-2 NGC) or 7 days (DENV-1 Djibouti strain D1/H/IMTSSA/98/606, DENV-3 strain H87 prototype, DENV-4 strain H241, and DENV-4 strain EDEN) in the presence of the inhibitor. Supernatant was harvested and viral RNA load was determined by real-time quantitative RT-PCR. The 50% effective concentration (EC50), which is defined as the compound concentration that is required to inhibit viral RNA replication by 50%, was determined using logarithmic interpolation.
RNA was isolated from 100 μL (or in some circumstances 150 μL) supernatant with the NucleoSpin 96 Virus kit (Filter Service, Duren, Germany) as described by the manufacturer. The sequences of the TaqMan primers (DENV-For, DENV-Rev; Table 5) and TaqMan probes (DENV-Probe Table 5) were selected from non-structural gene 3 (NS3) or NS5, of the respective flaviviruses using Primer Express software (version 2.0; Applied Biosystems, Lennik, Belgium). The TaqMan probe was fluorescently labelled with 6-carboxyfluorescein (FAM) at the 5′ end as the reporter dye, and with minor groove binder (MGB) at the 3′ end as the quencher (Table 5). One-step, quantitative RT-PCR was performed in a total volume of 25 μL, containing 13.9375 μL H2O, 6.25 μL master mix (Eurogentec, Seraing, Belgium), 0.375 μL forward primer, 0.375 μL reverse primer, 1 μL probe, 0.0625 μL reverse transcriptase (Eurogentec) and 3 μL sample. RT-PCR was performed using the ABI 7500 Fast Real-Time PCR System (Applied Biosystems, Branchburg, New Jersey, USA) using the following conditions: 30 min at 48° C. and 10 min at 95° C., followed by 40 cycles of 15 s at 95° C. and 1 min at 60° C. The data was analyzed using the ABI PRISM 7500 SDS software (version 1.3.1; Applied Biosystems). For absolute quantification, standard curves were generated using 10-fold dilutions of template preparations of known concentrations.

SMILES strings stand for the structures. Some results are limits rather than exact numbers.

Regarding `COc1cc(NC(C(=O)c2c[nH]c3cc(F)ccc23)c2ccc(Cl)cc2OC)cc(S(C)(=O)=O)c1` (single isomer, unassigned) [Compound 1A, 2-(4-chloro-2-methoxyphenyl)-1-(6-fluoro-1H-indol-3-yl)-2-((3-methoxy-5-(methylsulfonyl)phenyl)amino)ethanone], the EC50 (in general, the midpoint of the concentration-response curve) was 2.5 nM in assay [1], 23 nM in assay [2], 93 nM in assay [3] and under 15 nM in assay [4].
The matching figures for `COc1cc(NC(C(=O)c2c[nH]c3c(C)c(F)ccc23)c2ccc(Cl)cc2OC)cc(S(C)(=O)=O)c1` (single isomer, unassigned) [Compound 2A, 2-(4-chloro-2-methoxyphenyl)-1-(6-fluoro-7-methyl-1H-indol-3-yl)-2-((3-methoxy-5-(methylsulfonyl)phenyl)amino)ethanone]: 2.4 nM, 19 nM, 83 nM and under 14 nM.
On to `COc1cc(NC(C(=O)c2c[nH]c3cc(OC)c(C)cc23)c2ccc(Cl)cc2OC)cc(S(C)(=O)=O)c1` (single isomer, unassigned) [Compound 4A, 2-(4-chloro-2-methoxyphenyl)-2-((3-methoxy-5-(methyl-sulfonyl)phenyl)amino)-1-(6-methoxy-5-methyl-1H-indol-3-yl)ethanone], for which the EC50 in assay [1] is 0.97 nM; in assay [2], 15 nM; in assay [3] it was 53 nM; in assay [4], under 14 nM.
On to `COc1cc(NC(C(=O)c2c[nH]c3cc(OC)c(F)cc23)c2ccc(Cl)cc2OC)cc(S(C)(=O)=O)c1` (single isomer, unassigned) [Compound 5A, 2-(4-chloro-2-methoxyphenyl)-1-(5-fluoro-6-methoxy-1H-indol-3-yl)-2-((3-methoxy-5-(methylsulfonyl)phenyl)amino)ethanone], for which the EC50 in assay [1] was 3.6 nM; in assay [2], 53 nM; in assay [3], 100 nM; in assay [4], under 14 nM.
The matching figures for `COc1cc(NC(C(=O)c2c[nH]c3c(C)c(OC)ccc23)c2ccc(Cl)cc2OC)cc(S(C)(=O)=O)c1` (single isomer, unassigned) [Compound 6A, 2-(4-chloro-2-methoxyphenyl)-2-((3-methoxy-5-(methyl-sulfonyl)phenyl)amino)-1-(6-methoxy-7-methyl-1H-indol-3-yl)ethanone]: 1.6 nM, 19 nM, 95 nM and under 14 nM.
